Laboratory results: US12441691B2 (Cytokinetics, Inc., priority 2020, dated 2025)

system: rabbit skeletal myofibrils (fast skeletal myofibrils); test: Activation of fast skeletal myofibrils (PUMA assay, AC1.4); type: biochemical; conditions: calcium at pCa25, AC1.4 = concentration at which the compound increased the enzymatic activity
Outline: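 Detergent-washed rabbit psoas myofibrils (~90% fast fibers), calcium set to give 25% of maximal rate (pCa25). ATPase followed by pyruvate kinase/lactate dehydrogenase-coupled NADH oxidation, absorbance at 340 nm. PM12 buffer: 12 mM PIPES, 2 mM MgCl2, 1 mM DTT, pH 6.8.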

Row | SMILES | AC1.4 [µM]
1 | CC[C@H](C)[C@H]1C(=O)Nc2ccccc2CN1C(=O)C(C)(C)C(N)=O [Compound 147, 3-((S)-3-((S)-sec-butyl)-2-oxo-1,2,3,5-tetrahydro-4H-benzo[e][1,4]diazepin-4-yl)-2,2-dimethyl-3-oxopropanamide] | 2.57
2 | CC[C@H](C)[C@H]1C(=O)Nc2ccccc2CN1C(=O)C1CC(=O)N(C)C1 (stereo partly drawn) [Compound 148] | 0.98
3 | CC[C@H](C)[C@H]1C(=O)Nc2ccccc2CN1C(=O)CC(C)(C)O [Compound 149] | 2.08
4 | CC[C@H](C)[C@H]1C(=O)Nc2ccccc2CN1C(=O)c1cc2ncccc2[nH]1 [Compound 150, (S)-3-((S)-sec-butyl)-4-(1H-pyrrolo[3,2-b]pyridine-2-carbonyl)-1,3,4,5-tetrahydro-2H-benzo[e][1,4]diazepin-2-one] | 0.03
5 | CC[C@H](C)[C@H]1C(=O)Nc2ccccc2CN1C(=O)c1cc2ccncc2[nH]1 [Compound 151, (S)-3-((S)-sec-butyl)-4-(1H-pyrrolo[2,3-c]pyridine-2-carbonyl)-1,3,4,5-tetrahydro-2H-benzo[e][1,4]diazepin-2-one] | 0.06
6 | CC[C@H](C)[C@H]1C(=O)Nc2ccccc2CN1C(=O)c1ncn[nH]1 [Compound 152, (S)-3-((S)-sec-butyl)-4-(1H-1,2,4-triazole-5-carbonyl)-1,3,4,5-tetrahydro-2H-benzo[e][1,4]diazepin-2-one] | 0.07
7 | CC[C@H](C)[C@H]1C(=O)Nc2ccccc2CN1C(=O)c1c[nH]nn1 [Compound 153, (S)-3-((S)-sec-butyl)-4-(1H-1,2,3-triazole-4-carbonyl)-1,3,4,5-tetrahydro-2H-benzo[e][1,4]diazepin-2-one] | 0.09
8 | CC[C@H](C)[C@H]1C(=O)Nc2ccccc2CN1C(=O)c1cccc(=O)n1C [Compound 154, (S)-3-((S)-sec-butyl)-4-(1-methyl-6-oxo-1,6-dihydropyridine-2-carbonyl)-1,3,4,5-tetrahydro-2H-benzo[e][1,4]diazepin-2-one] | 0.65
9 | CC[C@H](C)[C@H]1C(=O)Nc2ccccc2CN1C(=O)c1ccc(=O)[nH]c1 [Compound 155, (S)-3-((S)-sec-butyl)-4-(6-oxo-1,6-dihydropyridine-3-carbonyl)-1,3,4,5-tetrahydro-2H-benzo[e][1,4]diazepin-2-one] | 0.54
10 | CC[C@H](C)[C@H]1C(=O)Nc2ccccc2CN1C(=O)c1ccc(=O)n(C)c1 [Compound 156, (S)-3-((S)-sec-butyl)-4-(1-methyl-6-oxo-1,6-dihydropyridine-3-carbonyl)-1,3,4,5-tetrahydro-2H-benzo[e][1,4]diazepin-2-one] | 0.90
11 | CC[C@H](C)[C@H]1C(=O)Nc2ccccc2CN1C(=O)c1cnn(C)n1 [Compound 157, (S)-3-((S)-sec-butyl)-4-(2-methyl-2H-1,2,3-triazole-4-carbonyl)-1,3,4,5-tetrahydro-2H-benzo[e][1,4]diazepin-2-one] | 0.11
12 | CC[C@H](C)[C@H]1C(=O)Nc2ccccc2CN1C(=O)c1ccc(C(N)=O)nc1 [Compound 158, 5-((S)-3-((S)-sec-butyl)-2-oxo-2,3,4,5-tetrahydro-1H-benzo[e][1,4]diazepine-4-carbonyl)picolinamide] | 0.44
13 | CC[C@H](C)[C@H]1C(=O)Nc2ccccc2CN1C(=O)c1cnnn1C [Compound 159, (S)-3-((S)-sec-butyl)-4-(1-methyl-1H-1,2,3-triazole-5-carbonyl)-1,3,4,5-tetrahydro-2H-benzo[e][1,4]diazepin-2-one] | 0.59
14 | CC[C@H](C)[C@H]1C(=O)Nc2ccccc2CN1C(=O)c1ncc[nH]1 [Compound 160, (S)-3-((S)-sec-butyl)-4-(1H-imidazole-2-carbonyl)-1,3,4,5-tetrahydro-2H-benzo[e][1,4]diazepin-2-one] | 0.16
15 | CC[C@H](C)[C@H]1C(=O)Nc2ccccc2CN1C(=O)C1CCC(=O)N1 (stereo partly drawn) [Compound 161, (3S)-3-((S)-sec-butyl)-4-(5-oxopyrrolidine-2-carbonyl)-1,3,4,5-tetrahydro-2H-benzo[e][1,4]diazepin-2-one] | 2.25
16 | CC[C@H](C)[C@H]1C(=O)Nc2ccccc2CN1C(=O)c1cncc(C(N)=O)c1 [Compound 162, 5-((S)-3-((S)-sec-butyl)-2-oxo-2,3,4,5-tetrahydro-1H-benzo[e][1,4]diazepine-4-carbonyl)nicotinamide] | 0.11
17 | CCOC(=O)c1ccc(C(=O)N2Cc3ccccc3NC(=O)[C@@H]2[C@@H](C)CC)[nH]1 [Compound 163, ethyl 5-((S)-3-((S)-sec-butyl)-2-oxo-2,3,4,5-tetrahydro-1H-benzo[e][1,4]diazepine-4-carbonyl)-1H-pyrrole-2-carboxylate] | 0.05

Row | SMILES | AC1.4 [µM]
18 | CC[C@H](C)[C@H]1C(=O)Nc2ccccc2CN1C(=O)c1cnn(C[C@@H](C)O)c1 [Compound 164, (S)-3-((S)-sec-butyl)-4-(1-((R)-2-hydroxypropyl)-1H-pyrazole-4-carbonyl)-1,3,4,5-tetrahydro-2H-benzo[e][1,4]diazepin-2-one] | 0.10
19 | CC[C@H](C)[C@H]1C(=O)Nc2ccccc2CN1C(=O)c1ccc2c(c1)NC(=O)C2 [Compound 165, (S)-3-((S)-sec-butyl)-4-(2-oxoindoline-6-carbonyl)-1,3,4,5-tetrahydro-2H-benzo[e][1,4]diazepin-2-one] | 0.14
20 | CC[C@H](C)[C@H]1C(=O)Nc2ccccc2CN1C(=O)c1ccc(C(=O)O)[nH]1 [Compound 166, 5-((S)-3-((S)-sec-butyl)-2-oxo-2,3,4,5-tetrahydro-1H-benzo[e][1,4]diazepine-4-carbonyl)-1H-pyrrole-2-carboxylic acid] | 0.45
21 | CC[C@H](C)[C@H]1C(=O)Nc2ccccc2CN1C(=O)c1ccc2c(c1)CC(=O)N2 [Compound 167, (S)-3-((S)-sec-butyl)-4-(2-oxoindoline-5-carbonyl)-1,3,4,5-tetrahydro-2H-benzo[e][1,4]diazepin-2-one] | 0.05
22 | CC[C@H](C)[C@H]1C(=O)Nc2ccccc2CN1C(=O)c1cc2nc(C(N)=O)ccc2[nH]1 [Compound 168, 2-((S)-3-((S)-sec-butyl)-2-oxo-2,3,4,5-tetrahydro-1H-benzo[e][1,4]diazepine-4-carbonyl)-1H-pyrrolo[3,2-b]pyridine-5-carboxamide] | 0.04
23 | CC[C@H](C)[C@H]1C(=O)Nc2ccccc2CN1C(=O)c1ccc2[nH]c(C(N)=O)cc2n1 [Compound 169, 5-((S)-3-((S)-sec-butyl)-2-oxo-2,3,4,5-tetrahydro-1H-benzo[e][1,4]diazepine-4-carbonyl)-1H-pyrrolo[3,2-b]pyridine-2-carboxamide] | 0.06
24 | CC[C@H](C)[C@H]1C(=O)Nc2ccccc2CN1C(=O)c1ccc(=O)n(CCO)c1 [Compound 170, (S)-3-((S)-sec-butyl)-4-(1-(2-hydroxyethyl)-6-oxo-1,6-dihydropyridine-3-carbonyl)-1,3,4,5-tetrahydro-2H-benzo[e][1,4]diazepin-2-one] | 0.79
25 | CC[C@H](C)[C@H]1C(=O)Nc2ccccc2CN1C(=O)c1nc2cccnc2[nH]1 [Compound 171, (S)-3-((S)-sec-butyl)-4-(3H-imidazo[4,5-b]pyridine-2-carbonyl)-1,3,4,5-tetrahydro-2H-benzo[e][1,4]diazepin-2-one] | 0.03
26 | CC[C@H](C)[C@H]1C(=O)Nc2ccccc2CN1C(=O)c1ccn(C)c(=O)c1 [Compound 172, (S)-3-((S)-sec-butyl)-4-(1-methyl-2-oxo-1,2-dihydropyridine-4-carbonyl)-1,3,4,5-tetrahydro-2H-benzo[e][1,4]diazepin-2-one] | 0.63
27 | CC[C@H](C)[C@H]1C(=O)Nc2ccccc2CN1C(=O)c1cnn(CC(N)=O)c1 [Compound 173, 2-(4-((S)-3-((S)-sec-butyl)-2-oxo-2,3,4,5-tetrahydro-1H-benzo[e][1,4]diazepine-4-carbonyl)-1H-pyrazol-1-yl)acetamide] | 0.22
28 | CC[C@H](C)[C@H]1C(=O)Nc2ccccc2CN1C(=O)c1ccc(C(=O)NCCO)[nH]1 [Compound 174, 5-((S)-3-((S)-sec-butyl)-2-oxo-2,3,4,5-tetrahydro-1H-benzo[e][1,4]diazepine-4-carbonyl)-N-(2-hydroxyethyl)-1H-pyrrole-2-carboxamide] | 0.03
29 | CC[C@H](C)[C@H]1C(=O)Nc2ccccc2CN1C(=O)c1ccc(C(=O)NCC(O)CO)[nH]1 (stereo partly drawn) [Compound 175, 5-((S)-3-((S)-sec-butyl)-2-oxo-2,3,4,5-tetrahydro-1H-benzo[e][1,4]diazepine-4-carbonyl)-N-(2,3-dihydroxypropyl)-1H-pyrrole-2-carboxamide] | 0.04
30 | CC[C@H](C)[C@H]1C(=O)Nc2ccccc2CN1C(=O)c1cc2c(=O)[nH]ncc2[nH]1 [Compound 176, (S)-3-((S)-sec-butyl)-4-(4-oxo-4,5-dihydro-1H-pyrrolo[2,3-d]pyridazine-2-carbonyl)-1,3,4,5-tetrahydro-2H-benzo[e][1,4]diazepin-2-one] | 0.05
31 | CC[C@H](C)[C@H]1C(=O)Nc2ccccc2CN1C(=O)[C@@H]1CCCN1 [Compound 177, (S)-4-(L-prolyl)-3-((S)-sec-butyl)-1,3,4,5-tetrahydro-2H-benzo[e][1,4]diazepin-2-one] | 2.64
32 | CC[C@H](C)[C@H]1C(=O)Nc2ccccc2CN1C(=O)[C@H]1CCCN1 [Compound 178, (S)-4-(D-prolyl)-3-((S)-sec-butyl)-1,3,4,5-tetrahydro-2H-benzo[e][1,4]diazepin-2-one] | 3.37
33 | CC[C@H](C)[C@H]1C(=O)Nc2ccccc2CN1C(=O)c1cn(C)nc1CCO [Compound 179, (S)-3-((S)-sec-butyl)-4-(3-(2-hydroxyethyl)-1-methyl-1H-pyrazole-4-carbonyl)-1,3,4,5-tetrahydro-2H-benzo[e][1,4]diazepin-2-one] | 2.27
